Test results published in patent US6048712A, “Process for producing α-monoglucosyl hesperidin-rich substance” (Kabushiki Kaisha Hayashibara, priority 1997, dated 2000).

Legend:
[1] = cited from earlier work
[2] = cited from earlier work; remark: listed apart in the source
[3] = Dissolution and crystallization behaviour in lower alcohols; type: physicochemical; conditions: heated lower alcohols, then cooled below ambient temperature, for example 15-25° C.

## COc1ccc([C@@H]2CC(=O)c3c(O)cc(O[C@@H]4O[C@H](CO[C@@H]5O[C@@H](C)[C@H](O)[C@@H](O)[C@H]5O)[C@@H](O)[C@H](O)[C@H]4O)cc3O2)cc1O [Hesperidin]
[1]; ambient temperature, about one gram in 50 1 water
  solubility in water: about 0.002 w/v %
[1]; aqueous alkaline solutions, water and acids
  solubility in words: dissolves in aqueous alkaline solutions but not substantially in water and acids

## COc1ccc([C@@H]2CC(=O)c3c(O)cc(O)cc3O2)cc1O [hesperetin, 3',5,7-trihydroxy-4'-metoxyflavanone]
[2]
  water solubility: substantially water-insoluble

## COc1ccc(C2CC(=O)c3c(O)cc(O[C@@H]4O[C@H](CO[C@@H]5O[C@@H](C)[C@H](O)[C@@H](O)[C@H]5O)[C@@H](O[C@H]5O[C@H](CO)[C@@H](O)[C@H](O)[C@H]5O)[C@H](O)[C@H]4O)cc3O2)cc1O (stereo partly drawn) [α-monoglucosyl hesperidin]
[3]
  solubility and crystallization in lower alcohols: easily dissolves in heated lower alcohols but easily crystallizes therein when the alcohols are cooled down to temperatures below ambient temperature

## COc1ccc(C2CC(=O)c3c(O)cc(O[C@@H]4O[C@H](CO)[C@@H](O)[C@H](O)[C@H]4O)cc3O2)cc1O (stereo partly drawn) [β-monoglucosyl hesperetin, 7-O-β-monoglucosyl hesperetin]
[3]
  solubility and crystallization in lower alcohols: easily dissolves in lower alcohols and does not substantially crystallize even when the alcohols are cooled down to temperatures below ambient temperature
